Results from PMC6211256, “From cycloheptathiophene-3-carboxamide to oxazinone-based derivatives as allosteric HIV-1 ribonuclease H inhibitors” (Journal of Enzyme Inhibition and Medicinal Chemistry, 2018).
“Also recorded” adds a separate entry of the source. Read-outs that look alike come from different tables or passages of the source.

Experiments:
[1] = molecular target: A502F RT (RDDP function) (Human immunodeficiency virus type 1 group M subtype B, UniProt P04585, A1089F); experiment: RDDP activity of A502F mutated RT; format: biochemical, HIV-1; conditions: compared with wt RT
Procedure: (§1) RNA-dependent DNA polymerase (RDDP) activity was measured as described[17] using and different amounts of enzymes according to a linear range of dose-response curve: 6 ng wt RT; 19 ng V108F RT; 45 ng Y188A RT; 30 ng W229A RT; A502F RT. The Yonetani-Theorell analysis was performed as previously described[41]^,[42].

[2] = molecular target: T1, HIV-1 RT-associated RNA dependent DNA polymerase (RDDP) (Human immunodeficiency virus type 1 group M subtype B, UniProt P04585); experiment: HIV-1 RNA-dependent DNA polymerase activity determination (wt RT); format: biochemical
Procedure: (§2) Heterodimeric RT was expressed essentially as described[19]^,[39]. Using a BioLogic LP system (Biorad), using a combination of immobilised metal affinity (Ni-Sepharose high performance, Healthcare Lifescience) and ion exchange chromatography (Hi-trap heparin HP GE). The protein was dialysed and stored in buffer containing 50 mM Tris HCl pH 7.0, 25 mM NaCl, 1 mM EDTA, and 50% glycerol. Catalytic activities and protein concentrations were determined. Enzyme-containing fractions were pooled and aliquots were stored at −80 °C.
as §1

[3] = molecular target: V108F RT (RNase H function) (Human immunodeficiency virus type 1 group M subtype B, UniProt P04585, V695F); experiment: RNase H activity of V108F mutated RT; format: biochemical, HIV-1; conditions: compared with wt RT
Procedure: (§3) HIV RT-associated RNase H activity was measured as described[40] using as a control the RNase H selective inhibitor RDS1759[9], and using different amount of enzymes according to a linear range of dose-response curve: 20 ng of WT RT; 75 ng V108F RT; 50 ng Y188A RT; 30 ng W229A RT; 100 ng A502F RT.

[4] = Cytotoxicity in MT-4 cells; conditions: human
[5] = molecular target: W229A RT (RNase H function) (Human immunodeficiency virus type 1 group M subtype B, UniProt P04585, W816A); experiment: RNase H activity of W229A mutated RT; format: biochemical, HIV-1; conditions: compared with wt RT
Procedure: as §3

[6] = molecular target: T2, HIV-1 RT-associated RNase H (Human immunodeficiency virus type 1 group M subtype B, UniProt P04585); experiment: HIV-1 DNA polymerase-independent RNase H activity determination (wt RT); format: biochemical
Procedure: as §2, §3

[7] = molecular target: V108F RT (RDDP function) (Human immunodeficiency virus type 1 group M subtype B, UniProt P04585, V695F); experiment: RDDP activity of V108F mutated RT; format: biochemical, HIV-1
Procedure: as §1

[8] = molecular target: Y188A RT (RDDP function) (Human immunodeficiency virus type 1 group M subtype B, UniProt P04585, Y775A); experiment: RDDP activity of Y188A mutated RT; format: biochemical, HIV-1
Procedure: as §1

[9] = molecular target: W229A RT (RDDP function) (Human immunodeficiency virus type 1 group M subtype B, UniProt P04585, W816A); experiment: RDDP activity of W229A mutated RT; format: biochemical, HIV-1; conditions: compared with wt RT
Procedure: as §1

[10] = molecular target: p66/p51 HIV-1 RT (Human immunodeficiency virus type 1 group M subtype B, UniProt P04585); format: binding; conditions: increasing concentration of compound; 100 ng/µl HIV-1 RT
[11] = molecular target: HIV-1 RT wild type RNA-dependent DNA polymerase activity (Human immunodeficiency virus type 1 group M subtype B, UniProt P04585); experiment: Yonetani-Theorell analysis of combination with EFV on RDDP function; format: biochemical; conditions: compound 22 at 10 and 30 μM with EFV
Procedure: as §1

[12] = Interaction between Mg2+ and HIV-1 RT inhibitors (UV-Vis spectra with MgCl2); format: physicochemical; conditions: 100 µM compound, MgCl2 up to 1.25 mM
Procedure: The effects of the magnesium ions were evaluated by mean of spectrophotometric method as reported, using a Ultrospec 2100 pro UV-Vis spectrophotometer (Amersham Biosciences) and Hellma quartz cuvette with 1 cm optical path. […]. Each studied compound was dissolved in DMSO to a final concentration of 10 mM and diluted in milliQ water to a final concentration of 100 µM. Each obtained solution was placed in a cuvette and the UV-Vis and the spectra were recorded between 200 and 700 nm using water milliQ (with a percentage of DMSO equal to the one present in the sample solution) as reference. Thereafter, small volumes of MgCl2 aqueous solution were added both in the sample and in the reference cuvettes to obtain a series of solutions containing increasing concentrations of MgCl2, up to 1.25 mM, carefully pipetting to mix, and the UV-Vis spectra were repeated. Each experiment was performed in triplicate.

[13] = molecular target: Y188A RT (RNase H function) (Human immunodeficiency virus type 1 group M subtype B, UniProt P04585, Y775A); experiment: RNase H activity of Y188A mutated RT; format: biochemical, HIV-1; conditions: compared with wt RT
Procedure: as §3

[14] = molecular target: A502F RT (RNase H function) (Human immunodeficiency virus type 1 group M subtype B, UniProt P04585, A1089F); experiment: RNase H activity of A502F mutated RT; format: biochemical, HIV-1
Procedure: as §3

[15] = molecular target: T2, HIV-1 RT-associated RNase H; set-up: method as in PMID 26990134; conditions: previously reported value; read-out: IC50, RNase H inhibition; cited from earlier work
[16] = molecular target: T1, HIV-1 RT-associated RNA dependent DNA polymerase (RDDP); set-up: method as in PMID 26990134; conditions: RDDP vs RNase H; cited from earlier work
[17] = wt RT, read-out: IC50, HIV-1 RT-associated RNase H activity

Compound	CC50 [4]	IC50 [6, 17]	other results
O=c1oc(-c2ccc(O)c(O)c2)nc2sc3ccccc3c12 [Compound 22, 2–(3,4-Dihydroxyphenyl)-4H-[1]benzothieno[2,3-d][1,3]oxazin-4-one]	27 to 300 µM	0.53 µM	effect of A502F substitution on inhibition of RDDP [1]: not significantly affecting; IC50 [2]: 2.9 µM; effect of V108F substitution on inhibition of RNase H [3]: no significant effect; effect of W229A substitution on inhibition of RNase H [5]: did not significantly affect; IC50 [7]: 10.6 µM; IC50 [8]: 9.64 µM; effect of W229A substitution on inhibition of RDDP [9]: did not significantly affect; change of RT melting temperature (Tm) [10]: dose-dependent increase in the RT Tm; Yonetani-Theorell: combined RDDP inhibition with EFV [11]: kinetically mutually exclusive; magnesium complexation (UV-Vis spectra) [12]: did not show any shift in the maximum of absorbance; also recorded: unable to chelate Mg^2+ ions; effect of Y188A substitution on inhibition of RNase H [13]: no significant effect; IC50 [14]: > 100 µM
O=c1oc(-c2ccc(O)c(O)c2)nc2sc3c(c12)CCCC3 [Compound 20, 2–(3,4-Dihydroxyphenyl)-5,6,7,8-tetrahydro-4H-[1]benzothieno[2,3-d][1,3]oxazin-4-one]	27 to 300 µM	3.35 µM	
O=c1oc(-c2ccc(O)c(O)c2)nc2c1CCCCC2 [Compound 25, 2–(3,4-Dihydroxyphenyl)-6,7,8,9-tetrahydrocyclohepta[d][1,3]oxazin-4(5H)-one]	27 to 300 µM		
COc1ccccc1C(=O)Nc1sc2c(c1C(N)=O)CCCCC2 [Compound 7, 2-[(2-Methoxybenzoyl)amino]-5,6,7,8-tetrahydro-4H-cyclohepta[b]thiophene-3-carboxamide]		14 µM	
O=c1oc(-c2ccc(O)c(O)c2)nc2ccccc12 [Compound 26, 2–(3,4-Dihydroxyphenyl)-4H-3,1-benzoxazin-4-one]	27 to 300 µM		
O=c1oc(-c2ccccc2O)nc2sc3c(c12)CCCCC3 [Compound 12, 2–(2-Hydroxyphenyl)-6,7,8,9-tetrahydro-4H,5H-cyclohepta[4,5]thieno[2,3-d][1,3]oxazin-4-one]		18.2 µM	
O=c1oc(-c2ccc(O)c(O)c2)nc2c3c(sc12)CCCCC3 [Compound 23, 2–(3,4-Dihydroxyphenyl)-7,8,9,10-tetrahydrocyclohepta[4,5]thieno[3,2-d][1,3]oxazin-4(6H)-one]	27 to 300 µM		
O=C(Nc1sc2c(c1C(=O)Nc1ccccn1)CCCCC2)c1ccc(O)c(O)c1 [Compound 1]			IC50 [15]: 0.84 µM; weaker potency against the polymerase activity with respect to RNase H activity [16]: 20 fold
Nc1sc2c(c1C(=O)Nc1ccc(Cl)cc1)CCCCC2 [Compound 5]		16.5 µM	
NC(=O)c1c(NC(=O)c2ccc(O)c(O)c2)sc2c1CCCCC2 [Compound 6, 2-[(3,4-Dihydroxybenzoyl)amino]-5,6,7,8-tetrahydro-4H-cyclohepta[b]thiophene-3-carboxamide]		2.6 µM	
O=c1oc(-c2ccc(O)c(O)c2)nc2sc3c(c12)CCC3 [Compound 21, 2–(3,4-Dihydroxyphenyl)-6,7-dihydro-4H,5H-cyclopenta[4,5]thieno[2,3-d][1,3]oxazin-4-one]	27 to 300 µM	1 µM	
O=c1oc(-c2ccc(O)c(O)c2)nc2sc3c(c12)CCCCC3 [Compound 10, 2–(3,4-Dihydroxyphenyl)-6,7,8,9-tetrahydro-4H,5H-cyclohepta[4,5]thieno[2,3-d][1,3]oxazin-4-one]	27 to 300 µM	1.1 µM	IC50 ([6]; compound added after the RNA:DNA duplex substrate, read-out: IC50, RNase H activity, compound added after the RNA:DNA duplex substrate): 11 µM
O=c1oc(-c2ccc(O)c(O)c2)nc2c1sc1ccccc12 [Compound 24, 2–(3,4-Dihydroxyphenyl)-4H-[1]benzothieno[3,2-d][1,3]oxazin-4-one]	27 to 300 µM	0.96 µM	IC50 [2]: 14.6 µM; change of RT melting temperature (Tm) [10]: dose-dependent increase in the RT Tm; magnesium complexation (UV-Vis spectra) [12]: did not show any shift in the maximum of absorbance; also recorded: unable to chelate Mg^2+ ions
O=c1[nH]c(-c2ccc(O)c(O)c2)nc2ccccc12 [Compound 27, 2–(3,4-Dihydroxyphenyl)quinazolin-4(3H)-one]	27 to 300 µM		
